From ChEMBL document CHEMBL4715844, “Structure-based virtual screening and biological evaluation of novel non-bisphosphonate farnesyl pyrophosphate synthase inhibitors” (Eur J Med Chem, 2020)
The source made the active and inactive calls. The calls are words filed in the database; no cut-off is given here.

Assays:
HCT-116 [1] = experiment: Cytotoxicity against FPPS-positive human HCT116 cells assessed as cell viability in presence of GGOH measured after 48 hrs by MTT assay; type: functional, cell-based; conditions: HCT-116, 48 h
LoVo [2] = experiment: Induction of ROS generation in human Lovo cells assessed as intracellular ROS level at […] 50 by DCFH-DA staining-based flow cytometric analysis (reference value: 9.18%); type: functional; conditions: dose 50 µM
LoVo [3] = experiment: Cytotoxicity against FPPS-positive human Lovo cells assessed as cell viability at 100 uM in presence of GGOH measured after 48 hrs by MTT assay; type: functional; conditions: read-out: Activity
HCT-116 [4] = experiment: Induction of apoptosis in human HCT116 cells assessed as early apoptotic cells at 50 uM after 48 hrs by Annexin V/FITC staining based flow cytometric analysis (reference value: 1.26%); type: functional
LoVo [5] = experiment: Induction of apoptosis in human Lovo cells assessed as late apoptotic cells at 25 uM after 48 hrs by Annexin V/FITC staining based flow cytometric analysis (reference value: 1.84%); type: functional
LoVo [6] = experiment: Cytotoxicity against FPPS-positive human Lovo cells assessed as cell viability in presence of FOH measured after 48 hrs by MTT assay; type: functional, cell-based
LoVo [7] = experiment: Cytotoxicity against FPPS-positive human Lovo cells assessed as cell viability at 100 uM in presence of FOH measured after 48 hrs by MTT assay; type: functional; conditions: read-out: Activity
LoVo [8] = experiment: Induction of apoptosis in human Lovo cells assessed as early apoptotic cells at 75 uM after 48 hrs by Annexin V/FITC staining based flow cytometric analysis (reference value: 6.76%); type: functional
LoVo [9] = experiment: Induction of apoptosis in human Lovo cells assessed as late apoptotic cells at 75 uM after 48 hrs by Annexin V/FITC staining based flow cytometric analysis (reference value: 1.84%); type: functional
LoVo [10] = experiment: Induction of apoptosis in human Lovo cells assessed as viable cells at 50 uM after 48 hrs by Annexin V/FITC staining based flow cytometric analysis (reference value: 91.1%); type: functional; conditions: read-out: Activity
LoVo [11] = experiment: Induction of apoptosis in human Lovo cells assessed as early apoptotic cells at 50 uM after 48 hrs by Annexin V/FITC staining based flow cytometric analysis (reference value: 6.76%); type: functional
LoVo [12] = experiment: Reduction in Ras protein expression in FPPS-positive human LoVo cells upto 75 uM measured after 48 hrs by Western blot analysis; type: functional; conditions: dose microM <=75, time 48.0 hrs
LoVo [13] = experiment: Cytotoxicity against FPPS-positive human Lovo cells assessed as cell viability in presence of GGOH measured after 48 hrs by MTT assay; type: functional, cell-based
LoVo [14] = experiment: Induction of ROS generation in human Lovo cells assessed as intracellular ROS level at 25 uM by DCFH-DA staining-based flow cytometric analysis (reference value: 9.18%); type: functional
HCT-116 [15] = experiment: Induction of ROS generation in human HCT116 cells assessed as intracellular ROS level at 25 uM by DCFH-DA staining-based flow cytometric analysis (reference value: 8.91%); type: functional
HCT-116 [16] = experiment: Growth inhibition of human HCT116 cells at 100 uM incubated for 48 hrs by MTT assay relative to control; type: functional; conditions: read-out: GI
[17] = target: T1, Farnesyl pyrophosphate synthase (Rattus norvegicus) (UniProt P05369); experiment: Inhibition of rat FPPS expressed in Escherichia coli BL21 (DE3) using GPP and IPP as substrate at 10 uM incubated for 10 mins by microplate reader
T1 sequence (whole entry): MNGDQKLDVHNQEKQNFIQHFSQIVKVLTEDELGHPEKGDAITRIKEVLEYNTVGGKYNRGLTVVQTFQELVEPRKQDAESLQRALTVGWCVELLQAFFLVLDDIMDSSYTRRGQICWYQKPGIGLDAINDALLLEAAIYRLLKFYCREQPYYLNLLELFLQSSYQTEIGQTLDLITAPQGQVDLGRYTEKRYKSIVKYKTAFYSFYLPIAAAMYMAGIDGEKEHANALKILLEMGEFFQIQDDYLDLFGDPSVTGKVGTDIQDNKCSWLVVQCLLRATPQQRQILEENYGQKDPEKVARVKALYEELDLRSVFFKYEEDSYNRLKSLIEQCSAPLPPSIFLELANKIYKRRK

MDA-MB-231 = experiment: Cytotoxicity against FPPS-negative human MDA-MB-231 cells assessed as reduction in cell viability measured after 48 hrs by MTT assay; type: functional, cell-based; conditions: MDA-MB-231, 48 h
LoVo [18] = experiment: Growth inhibition of human LoVo cells at 100 uM incubated for 48 hrs by MTT assay relative to control; type: functional; conditions: read-out: GI
HCT-116 [19] = experiment: Induction of apoptosis in human HCT116 cells assessed as necrotic cells at 50 uM after 48 hrs by Annexin V/FITC staining based flow cytometric analysis (reference value: 1.12%); type: functional
[20] = target: T2, Farnesyl pyrophosphate synthase (Rattus norvegicus, UniProt P05369); experiment: Binding affinity to rat FPPS expressed in Escherichia coli BL21 (DE3) by isothermal titration calorimetry
T2 sequence (P05369 whole entry): T1 sequence (whole entry)

[21] = Reduction in Ras protein expression in FPPS-positive human HCT116 cells assessed as mean fluorescence intensity upto 75 uM measured after 48 hrs by Western blot analysis relative to untreated control; type: functional, HCT-116; conditions: dose microM <=75
LoVo [22] = experiment: Cytotoxicity against FPPS-positive human Lovo cells assessed as reduction in cell viability measured after 48 hrs by MTT assay
LoVo [23] = experiment: Induction of ROS generation in human Lovo cells assessed as intracellular ROS level at 75 uM by DCFH-DA staining-based flow cytometric analysis (reference value: 9.18%); type: functional
LoVo [24] = experiment: Induction of apoptosis in human Lovo cells assessed as early apoptotic cells at 25 uM after 48 hrs by Annexin V/FITC staining based flow cytometric analysis (reference value: 6.76%); type: functional
LoVo [25] = experiment: Induction of apoptosis in human Lovo cells assessed as viable cells at 25 uM after 48 hrs by Annexin V/FITC staining based flow cytometric analysis (reference value: 91.1%); type: functional; conditions: read-out: Activity
HCT-116 [26] = experiment: Induction of apoptosis in human HCT116 cells assessed as late apoptotic cells at 50 uM after 48 hrs by Annexin V/FITC staining based flow cytometric analysis (reference value: 5.63%); type: functional
HCT-116 [27] = experiment: Cytotoxicity against FPPS-positive human HCT116 cells assessed as reduction in cell viability measured after 48 hrs by MTT assay; conditions: HCT-116, 48 h
HCT-116 [28] = experiment: Induction of ROS generation in human HCT116 cells assessed as intracellular ROS level at 75 uM by DCFH-DA staining-based flow cytometric analysis (reference value: 8.91%); type: functional
HCT-116 [29] = experiment: Induction of apoptosis in human HCT116 cells assessed as late apoptotic cells at 25 uM after 48 hrs by Annexin V/FITC staining based flow cytometric analysis (reference value: 5.63%); type: functional
MDA-MB-468 = experiment: Growth inhibition of human MDA-MB-468 cells at 100 uM incubated for 48 hrs by MTT assay relative to control; conditions: MDA-MB-468, 48 h, read-out: GI
HCT-116 [30] = experiment: Induction of apoptosis in human HCT116 cells assessed as viable cells at 75 uM after 48 hrs by Annexin V/FITC staining based flow cytometric analysis (reference value: 92%); type: functional; conditions: read-out: Activity
HCT-116 [31] = experiment: Induction of apoptosis in human HCT116 cells assessed as early apoptotic cells at 25 uM after 48 hrs by Annexin V/FITC staining based flow cytometric analysis (reference value: 1.26%); type: functional
HCT-116 [32] = experiment: Induction of apoptosis in human HCT116 cells assessed as necrotic cells at 75 uM after 48 hrs by Annexin V/FITC staining based flow cytometric analysis (reference value: 1.12%); type: functional
HCT-116 [33] = experiment: Cytotoxicity against FPPS-positive human HCT116 cells assessed as cell viability at 100 uM in presence of FOH measured after 48 hrs by MTT assay; type: functional; conditions: read-out: Activity
HCT-116 [34] = experiment: Induction of apoptosis in human HCT116 cells assessed as late apoptotic cells at 75 uM after 48 hrs by Annexin V/FITC staining based flow cytometric analysis (reference value: 5.63%); type: functional
HCT-116 [35] = experiment: Reduction in Ras protein expression in FPPS-positive human HCT116 cells upto 75 uM measured after 48 hrs by Western blot analysis; type: functional, cell-based; conditions: dose microM <=75, time 48.0 hrs
HCT-116 [36] = experiment: Cytotoxicity against FPPS-positive human HCT116 cells assessed as cell viability at 100 uM in presence of GGOH measured after 48 hrs by MTT assay; type: functional; conditions: read-out: Activity
[37] = Reduction in Ras protein expression in FPPS-positive human LoVo cells assessed as mean fluorescence intensity upto 75 uM measured after 48 hrs by Western blot analysis relative to untreated control; type: functional; conditions: dose microM <=75
HCT-116 [38] = experiment: Cytotoxicity against FPPS-positive human HCT116 cells assessed as cell viability in presence of FOH measured after 48 hrs by MTT assay; type: functional, cell-based; conditions: HCT-116, 48 h
HCT-116 [39] = experiment: Induction of apoptosis in human HCT116 cells assessed as viable cells at 50 uM after 48 hrs by Annexin V/FITC staining based flow cytometric analysis (reference value: 92%); type: functional; conditions: read-out: Activity
LoVo [40] = experiment: Induction of apoptosis in human Lovo cells assessed as necrotic cells at 25 uM after 48 hrs by Annexin V/FITC staining based flow cytometric analysis (reference value: 0.321%); type: functional
HCT-116 [41] = experiment: Induction of apoptosis in human HCT116 cells assessed as necrotic cells at 25 uM after 48 hrs by Annexin V/FITC staining based flow cytometric analysis (reference value: 1.12%); type: functional
LoVo [42] = experiment: Induction of apoptosis in human Lovo cells assessed as late apoptotic cells at 50 uM after 48 hrs by Annexin V/FITC staining based flow cytometric analysis (reference value: 1.84%); type: functional
HCT-116 [43] = experiment: Induction of apoptosis in human HCT116 cells assessed as early apoptotic cells at 75 uM after 48 hrs by Annexin V/FITC staining based flow cytometric analysis (reference value: 1.26%); type: functional
HCT-116 [44] = experiment: Induction of apoptosis in human HCT116 cells assessed as viable cells at 25 uM after 48 hrs by Annexin V/FITC staining based flow cytometric analysis (reference value: 92%); type: functional; conditions: read-out: Activity
HCT-116 [45] = experiment: Induction of ROS generation in human HCT116 cells assessed as intracellular ROS level at 50 uM by DCFH-DA staining-based flow cytometric analysis (reference value: 8.91%); type: functional
LoVo [46] = experiment: Induction of apoptosis in human Lovo cells assessed as necrotic cells at 75 uM after 48 hrs by Annexin V/FITC staining based flow cytometric analysis (reference value: 0.321%); type: functional
LoVo [47] = experiment: Induction of apoptosis in human Lovo cells assessed as necrotic cells at 50 uM after 48 hrs by Annexin V/FITC staining based flow cytometric analysis (reference value: 0.321%); type: functional
LoVo [48] = experiment: Induction of apoptosis in human Lovo cells assessed as viable cells at 75 uM after 48 hrs by Annexin V/FITC staining based flow cytometric analysis (reference value: 91.1%); type: functional; conditions: read-out: Activity

inhibition [17]: 24% | Kd [20]: 14.3 µM
Compound: COc1ccccc1CN(CCS(=O)(=O)N1CCNCC1)S(=O)(=O)c1ccc(C)cc1
IC50 (HCT-116 [1]): 73.9 µM | Activity (LoVo [2]): 48% | viability at 100 µM (LoVo [3]): 14.8% | Activity (HCT-116 [4]): 16.6% | Activity (LoVo [5]): 4.29% | IC50 (LoVo [6]): 55.6 µM | viability at 100 µM (LoVo [7]): 19% | Activity (LoVo [8]): 32.7% | Activity (LoVo [9]): 26.5% | viability at 50 µM (LoVo [10]): 52.3% | Activity (LoVo [11]): 24.6% | inhibition (LoVo [12]): Active | IC50 (LoVo [13]): 51 µM | Activity (LoVo [14]): 19.6% | Activity (HCT-116 [15]): 18.7% | inhibition of growth at 100 µM (HCT-116 [16]): 80% | IC50 (MDA-MB-231): > 100 µM | inhibition of growth at 100 µM (LoVo [18]): 80% | Activity (HCT-116 [19]): 1.28% | fold change (FC) [21]: 6.82 | IC50 (LoVo [22]): 43.6 µM | Activity (LoVo [23]): 74.6% | Activity (LoVo [24]): 17.8% | viability at 25 µM (LoVo [25]): 75.9% | Activity (HCT-116 [26]): 14.6% | IC50 (HCT-116 [27]): 51.8 µM | Activity (HCT-116 [28]): 60.8% | Activity (HCT-116 [29]): 5.2% | inhibition of growth at 100 µM (MDA-MB-468): 80% | viability at 75 µM (HCT-116 [30]): 49.9% | Activity (HCT-116 [31]): 11.99% | Activity (HCT-116 [32]): 3.86% | viability at 100 µM (HCT-116 [33]): 28.5% | Activity (HCT-116 [34]): 20.4% | inhibition (HCT-116 [35]): Active | viability at 100 µM (HCT-116 [36]): 27.9% | fold change (FC) [37]: 8.13 | IC50 (HCT-116 [38]): 81.1 µM | viability at 50 µM (HCT-116 [39]): 67.5% | Activity (LoVo [40]): 2.04% | Activity (HCT-116 [41]): 1.98% | Activity (LoVo [42]): 21.2% | Activity (HCT-116 [43]): 25.8% | viability at 25 µM (HCT-116 [44]): 80.9% | Activity (HCT-116 [45]): 30.9% | Activity (LoVo [46]): 2.71% | Activity (LoVo [47]): 1.84% | viability at 75 µM (LoVo [48]): 38.1%
